Reference: patent US12344610B2, “APOL1 inhibitors and methods of use” (Maze Therapeutics, Inc., priority 2022, dated 2025)

Target: T1, APOL1 G2 (Homo sapiens, UniProt O14791, DEL388-389)
T1 construct: expressed in transfected cells; host or cells: HEK293 T-REx clonal line stably expressing GCaMP6f (HEK T-REx/GCaMP6f/APOL1 G2 K6.3), doxycycline induced
T1 sequence (O14791 with tags, fused parts or gaps DEL388-389): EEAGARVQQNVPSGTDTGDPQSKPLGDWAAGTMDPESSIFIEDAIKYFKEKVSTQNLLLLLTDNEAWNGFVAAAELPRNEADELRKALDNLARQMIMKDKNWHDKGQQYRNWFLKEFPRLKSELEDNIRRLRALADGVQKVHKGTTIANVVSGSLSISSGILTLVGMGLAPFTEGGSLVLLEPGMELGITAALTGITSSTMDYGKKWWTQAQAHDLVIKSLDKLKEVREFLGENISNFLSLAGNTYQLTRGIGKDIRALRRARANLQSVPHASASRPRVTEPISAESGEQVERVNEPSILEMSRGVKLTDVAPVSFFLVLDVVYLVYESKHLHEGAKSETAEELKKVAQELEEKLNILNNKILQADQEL
Test: APOL1-mediated calcium transport (calcium influx) assay, HEK T-REx/GCaMP6f/APOL1 G2 K6.3 cells, FLIPR TETRA
Assay type: cell-based
Conditions: prevention of calcium influx; geometric mean of at least 2 assay runs; † = average of a technical replicate from a single assay run
Outline: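 A HEK293 T-REx clone stably expressing GCaMP6f had APOL1 G2 induced with doxycycline (20 ng/mL solution added) for 6 h. Cells were then washed into Ca2+-free Tyrode's buffer (pH 7.4) and preincubated with compounds (duplicate 8-point) for 10 min at room temperature. Ca2+ injection to 5 mM final produced FLIPR GCaMP fluorescence, giving AC50 for influx inhibition (geometric mean, ≥2 runs).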

## CC(c1ccc(OCCN2CCC3(CC2)C(=O)Nc2ccc(Cl)cc23)cc1)S(C)(=O)=O (single isomer, unassigned) [Compound 39, 5-chloro-1′-(2-{4-[(1S) or (1R)-1-methanesulfonylethyl]phenoxy}ethyl)-1,2-dihydrospiro[indole-3,4′-piperidin]-2-one]
  AC50: 745 nM

## O=C1CCc2cc(OCCN3CCC4(CC3)C(=O)Nc3ccc(Cl)cc34)cnc2N1[C@H]1C[C@@H](CO)C1 (single isomer, unassigned) [Compound 319, 5-chloro-1′-[2-({7-oxo-8-[(cis)-3-(hydroxymethyl)cyclobutyl]-5,6,7,8-tetrahydro-1,8-naphthyridin-3-yl}oxy)ethyl]-1,2-dihydrospiro[indole-3,4′-piperidin]-2-one]
  AC50: 378 nM

## CC[C@]1(O)C[C@@H](N2C(=O)CCc3cc(OCCN4CCC5(CC4)C(=O)Nc4ccc(Cl)cc45)cnc32)C1 (single isomer, unassigned) [Compound 321, 5-chloro-1′-[2-({7-oxo-8-[(cis)-3-ethyl-3-hydroxycyclobutyl]-5,6,7,8-tetrahydro-1,8-naphthyridin-3-yl}oxy)ethyl]-1,2-dihydrospiro[indole-3,4′-piperidin]-2-one]
  AC50: 621 nM

## CC1(O)CC(CN2C(=O)CCc3cc(OCCN4CCC5(CC4)C(=O)Nc4ccc(Cl)cc45)cnc32)C1 (single isomer, unassigned) [Compound 322, 5-chloro-1′-{2-[(7-oxo-8-{[(trans) or (cis)-3-hydroxy-3-methylcyclobutyl]methyl}-5,6,7,8-tetrahydro-1,8-naphthyridin-3-yl)oxy]ethyl}-1,2-dihydrospiro[indole-3,4′-piperidin]-2-one]
  AC50: 588 nM

## C[C@]1(O)C[C@@H](n2ncc3cc(OCCN4CCC5(CC4)C(=O)Nc4ccc(Cl)cc45)cnc32)C1 (single isomer, unassigned) [Compound 357, 5-chloro-1′-[2-({1-[(cis)-3-hydroxy-3-methylcyclobutyl]-1H-pyrazolo[3,4-b]pyridin-5-yl}oxy)ethyl]-1,2-dihydrospiro[indole-3,4′-piperidin]-2-one]
  AC50: 412 nM

## CC1(O)CC(c2ncc(OCCN3CCC4(CC3)C(=O)Nc3ccc(Cl)cc34)cn2)C1 (single isomer, unassigned) [Compound 393, 5-chloro-1′-[2-({2-[(cis) or (trans)-3-hydroxy-3-methylcyclobutyl]pyrimidin-5-yl}oxy)ethyl]-1,2-dihydrospiro[indole-3,4′-piperidin]-2-one]
  AC50: 1060 nM

## C[C@]1(O)C[C@H](n2ncc3cc(OCCN4CCC5(CC4)C(=O)Nc4ccc(Cl)cc45)cnc32)C1 (single isomer, unassigned) [Compound 408, 5-chloro-1′-[2-({1-[(trans)-3-hydroxy-3-methylcyclobutyl]-1H-pyrazolo[3,4-b]pyridin-5-yl}oxy)ethyl]-1,2-dihydrospiro[indole-3,4′-piperidin]-2-one]
  AC50: 283 nM

## C[C@]1(O)C[C@@H](N2C(=O)CCc3cc(OCCN4CCC5(CC4)C(=O)Nc4ccc(OC(F)F)cc45)cnc32)C1 [Cmpd 325, 5-(difluoromethoxy)-1′-[2-({7-oxo-8-[(cis)-3-hydroxy-3-methylcyclobutyl]-5,6,7,8-tetrahydro-1,8-naphthyridin-3-yl}oxy)ethyl]-1,2-dihydrospiro[indole-3,4′-piperidin]-2-one]
  AC50: 791 nM

## CC(c1ncc(OCCN2CCC3(CC2)C(=O)Nc2ccc(Cl)cc23)cn1)S(C)(=O)=O (stereo not shown) [Compound 1, 5-Chloro-1′-(2-{[2-(1-methanesulfonylethyl)pyrimidin-5-yl]oxy}ethyl)-1,2-dihydrospiro[indole-3,4′-piperidin]-2-one]
  AC50: 703 nM

## CS(=O)(=O)C1(c2ncc(OCCN3CCC4(CC3)C(=O)Nc3ccc(Cl)cc34)cn2)CC1 [Compound 4, 5-chloro-1′-(2-{[2-(1-methanesulfonylcyclopropyl)pyrimidin-5-yl]oxy}ethyl)-1,2-dihydrospiro[indole-3,4′-piperidin]-2-one]
  AC50: 670 nM

## Cc1nc(-c2ccc(OCCN3CCC4(CC3)C(=O)N(C)c3ccccc34)cc2)no1 [Compound 35, 1-methyl-1′-{2-[4-(5-methyl-1,2,4-oxadiazol-3-yl)phenoxy]ethyl}-1,2-dihydrospiro[indole-3,4′-piperidin]-2-one]
  AC50: 142 nM

## CC(=O)N1CCCc2cc(OCCN3CCC4(CC3)C(=O)N(C)c3ccccc34)ccc21 [Compound 36, 1′-{2-[(1-acetyl-1,2,3,4-tetrahydroquinolin-6-yl)oxy]ethyl}-1-methyl-1,2-dihydrospiro[indole-3,4′-piperidin]-2-one]
  AC50: 223 nM

## CS(=O)(=O)c1c(F)cc(OCCN2CCC3(CC2)C(=O)Nc2ccccc23)cc1F [Compound 42, 1′-[2-(3,5-difluoro-4-methanesulfonylphenoxy)ethyl]-1,2-dihydrospiro[indole-3,4′-piperidin]-2-one]
  AC50: 316 nM

## O=C1Nc2ccc(Cl)cc2C12CCN(CCOc1ccc(S(=O)(=O)C3CC3)cc1)CC2 [Compound 43, 5-chloro-1′-{2-[4-(cyclopropanesulfonyl)phenoxy]ethyl}-1,2-dihydrospiro[indole-3,4′-piperidin]-2-one]
  AC50: 507 nM

## O=C1Nc2ccccc2C12CCN(CCOc1ccc(S(=O)(=O)C(F)F)cc1)CC2 [Compound 44, 1′-[2-(4-difluoromethanesulfonylphenoxy)ethyl]-1,2-dihydrospiro[indole-3,4′-piperidin]-2-one]
  AC50: 352 nM

## NC(=O)c1ccc(OCCN2CCC3(CC2)C(=O)Nc2ccc(Cl)cc23)cc1 [Compound 45, 4-(2-{5-chloro-2-oxo-1,2-dihydrospiro[indole-3,4′-piperidin]-1′-yl}ethoxy)benzamide]
  AC50: 746 nM

## NC(=O)c1ccc(OCCN2CCC3(CC2)C(=O)Nc2ccc(Cl)cc23)cc1F [Compound 46, 4-(2-{5-chloro-2-oxo-1,2-dihydrospiro[indole-3,4′-piperidin]-1′-yl}ethoxy)-2-fluorobenzamide]
  AC50: 434 nM

## Cc1cc(OCCN2CCC3(CC2)C(=O)Nc2ccc(Cl)cc23)ccc1C(N)=O [Compound 49, 4-(2-{5-chloro-2-oxo-1,2-dihydrospiro[indole-3,4′-piperidin]-1′-yl}ethoxy)-2-methylbenzamide]
  AC50: 875 nM

## CS(=O)(=O)c1ccc(OCCN2CCC3(CC2)C(=O)Nc2ccc(Cl)cc23)cc1C#N [Compound 50, 5-(2-{5-chloro-2-oxo-1,2-dihydrospiro[indole-3,4′-piperidin]-1′-yl}ethoxy)-2-methanesulfonylbenzonitrile]
  AC50: 622 nM

## CS(=O)(=O)N1CCCc2cc(OCCN3CCC4(CC3)C(=O)Nc3ccc(Cl)cc34)ccc21 [Compound 53, 5-chloro-1′-{2-[(1-methanesulfonyl-1,2,3,4-tetrahydroquinolin-6-yl)oxy]ethyl}-1,2-dihydrospiro[indole-3,4′-piperidin]-2-one]
  AC50: 838 nM

## CC(=O)N1CCCc2cc(OCCN3CCC4(CC3)C(=O)Nc3ccc(Cl)cc34)ccc21 [Compound 56, 1′-{2-[(1-acetyl-1,2,3,4-tetrahydroquinolin-6-yl)oxy]ethyl}-5-chloro-1,2-dihydrospiro[indole-3,4′-piperidin]-2-one]
  AC50: 1010 nM

## CC(=O)N1Cc2ccc(OCCN3CCC4(CC3)C(=O)Nc3ccc(Cl)cc34)cc2C1 [Compound 57, 1′-{2-[(2-acetyl-2,3-dihydro-1H-isoindol-5-yl)oxy]ethyl}-5-chloro-1,2-dihydrospiro[indole-3,4′-piperidin]-2-one]
  AC50: 706 nM
